Reference: ChEMBL document CHEMBL5104164, “Design, synthesis, and biological evaluation of pyrrolopyrimidine derivatives as novel Bruton's tyrosine kinase (BTK) inhibitors” (Eur J Med Chem, 2022)

Columns and labels:
[1] = Antiproliferative activity against human MINO cells incubated for 72 hrs by CellTiter-Glo assay; type: functional, cell-based
[2] = Mutagenicity in Salmonella typhimurium TA98 at 1.5 to 1000 ug per plate in presence of liver microsomes by AMES test; type: toxicity, Salmonella enterica subsp. enterica serovar Typhimurium; settings: dose 1.5-1000 µg
[3] = Toxicity in female CB-17 SCID nude mouse xenografted with human TMD8 cells assessed as effect on platelets at 50 mg/kg, po administered twice daily for 21 days; type: organism-based; settings: in vivo, 504 h, time 21 day
[4] = molecular target: Receptor tyrosine-protein kinase erbB-4 (Homo sapiens) (UniProt Q15303); assay: Inhibition of ERBB4 (unknown origin) assessed as residual percent of control at 1 uM measured by DiscoverX kinome scan assay relative to control
Receptor tyrosine-protein kinase erbB-4 (Homo sapiens), sequence (Q15303 whole entry): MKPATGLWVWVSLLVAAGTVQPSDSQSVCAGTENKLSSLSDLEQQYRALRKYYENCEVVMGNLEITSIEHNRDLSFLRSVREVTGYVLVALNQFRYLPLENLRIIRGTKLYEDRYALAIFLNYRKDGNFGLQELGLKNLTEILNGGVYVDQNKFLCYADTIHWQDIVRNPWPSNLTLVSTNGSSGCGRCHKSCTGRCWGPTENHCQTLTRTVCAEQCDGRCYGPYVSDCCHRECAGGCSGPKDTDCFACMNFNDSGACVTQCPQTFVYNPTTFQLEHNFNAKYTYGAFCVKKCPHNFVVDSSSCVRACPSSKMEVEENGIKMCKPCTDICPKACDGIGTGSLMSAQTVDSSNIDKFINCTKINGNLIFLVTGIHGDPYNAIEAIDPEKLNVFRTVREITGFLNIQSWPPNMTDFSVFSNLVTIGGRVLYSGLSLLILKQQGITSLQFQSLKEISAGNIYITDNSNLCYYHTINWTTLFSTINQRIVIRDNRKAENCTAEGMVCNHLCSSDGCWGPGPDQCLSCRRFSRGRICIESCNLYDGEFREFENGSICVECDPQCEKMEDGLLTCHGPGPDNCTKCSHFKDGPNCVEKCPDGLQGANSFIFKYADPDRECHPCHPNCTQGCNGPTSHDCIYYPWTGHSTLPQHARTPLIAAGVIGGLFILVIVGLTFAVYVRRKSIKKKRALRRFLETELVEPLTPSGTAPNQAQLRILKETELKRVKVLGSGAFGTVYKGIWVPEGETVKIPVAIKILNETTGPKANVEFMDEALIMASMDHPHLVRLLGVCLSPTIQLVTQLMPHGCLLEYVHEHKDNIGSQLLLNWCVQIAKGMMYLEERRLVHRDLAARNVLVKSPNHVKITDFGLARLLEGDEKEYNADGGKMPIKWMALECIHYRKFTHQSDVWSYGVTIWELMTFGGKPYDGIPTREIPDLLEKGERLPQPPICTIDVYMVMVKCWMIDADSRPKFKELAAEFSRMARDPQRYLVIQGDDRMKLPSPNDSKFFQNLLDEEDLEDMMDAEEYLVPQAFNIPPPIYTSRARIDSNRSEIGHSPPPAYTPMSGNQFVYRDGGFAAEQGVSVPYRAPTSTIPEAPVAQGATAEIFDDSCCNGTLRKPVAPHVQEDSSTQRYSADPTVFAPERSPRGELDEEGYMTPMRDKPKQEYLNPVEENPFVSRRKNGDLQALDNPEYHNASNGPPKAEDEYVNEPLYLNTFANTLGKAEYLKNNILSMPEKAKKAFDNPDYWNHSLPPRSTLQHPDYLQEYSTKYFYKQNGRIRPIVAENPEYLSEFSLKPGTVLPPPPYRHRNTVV

[5] = Mutagenicity in Salmonella typhimurium TA1537 at 1.5 to 1000 ug per plate in presence of liver microsomes by AMES test; type: toxicity, Salmonella enterica subsp. enterica serovar Typhimurium; settings: dose 1.5-1000 µg
TMD8 [6] = assay: Induction of apoptosis in human TMD8 cells assessed as apoptotic cells 1000 nM incubated for 72 hrs by AnnexinV-FITC/propidium iodide staining based flow cytometric analysis; type: functional
[7] = AUC (0 to infinity) in male BALB/c mouse at 10 mg/kg, po; type: ADME, organism-based; set-up: time infinity, dose 10 mg/kg, route po; settings: in vivo
[8] = Mutagenicity in Salmonella typhimurium TA98 at 1.5 to 1000 ug per plate by AMES test; type: toxicity, Salmonella enterica subsp. enterica serovar Typhimurium; settings: dose 1.5-1000 µg
[9] = Mutagenicity in Salmonella typhimurium TA1535 at 1.5 to 1000 ug per plate by AMES test; type: toxicity, Salmonella enterica subsp. enterica serovar Typhimurium; settings: dose 1.5-1000 µg
[10] = Half-life in male BALB/c mouse at 10 mg/kg, po; type: ADME, organism-based; settings: in vivo
Raji = assay: Antiproliferative activity against human Raji cells incubated for 72 hrs by CellTiter-Glo assay; type: functional, cell-based
[11] = AUC (0 to infinity) in male BALB/c mouse at 2 mg/kg, iv; type: ADME, organism-based; set-up: time infinity, dose 2 mg/kg, route iv; settings: in vivo
[12] = Mutagenicity in Salmonella typhimurium TA100 at 1.5 to 1000 ug per plate by AMES test; type: toxicity, Salmonella enterica subsp. enterica serovar Typhimurium; settings: dose 1.5-1000 µg
TMD8 [13] = assay: Cell cycle arrest in human TMD8 cells assessed as accumulation of cells at G2 phase at 10 nM after 48 hrs by propidium iodide staining based flow cytometric analysis (reference value: 13.4%); type: functional
[14] = molecular target: Tyrosine-protein kinase BTK (Homo sapiens, UniProt Q06187); assay: Inhibition of BTK (unknown origin) assessed as residual percent of control at 1 uM measured by DiscoverX kinome scan assay relative to control
Tyrosine-protein kinase BTK, sequence (Q06187 whole entry): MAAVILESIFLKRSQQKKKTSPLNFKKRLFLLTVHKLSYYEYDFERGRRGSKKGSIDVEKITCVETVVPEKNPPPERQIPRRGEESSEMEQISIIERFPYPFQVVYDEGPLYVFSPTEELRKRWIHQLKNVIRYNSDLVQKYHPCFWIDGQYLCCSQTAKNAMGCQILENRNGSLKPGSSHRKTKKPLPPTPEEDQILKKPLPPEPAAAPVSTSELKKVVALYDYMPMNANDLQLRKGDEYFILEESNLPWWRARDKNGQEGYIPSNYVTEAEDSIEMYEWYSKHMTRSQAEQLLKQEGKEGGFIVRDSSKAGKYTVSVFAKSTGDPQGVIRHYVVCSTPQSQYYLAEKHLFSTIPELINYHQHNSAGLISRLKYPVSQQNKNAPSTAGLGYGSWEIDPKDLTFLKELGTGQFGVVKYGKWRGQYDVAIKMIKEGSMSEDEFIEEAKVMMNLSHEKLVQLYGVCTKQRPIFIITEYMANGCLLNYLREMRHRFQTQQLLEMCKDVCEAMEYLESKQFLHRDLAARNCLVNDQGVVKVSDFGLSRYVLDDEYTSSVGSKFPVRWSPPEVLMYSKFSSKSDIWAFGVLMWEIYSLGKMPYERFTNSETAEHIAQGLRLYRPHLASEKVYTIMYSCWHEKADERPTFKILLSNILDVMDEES

[15] = molecular target: T1, Tyrosine-protein kinase JAK3 (Homo sapiens) (UniProt P52333); assay: Inhibition of Jak3 (unknown origin) assessed as residual percent of control at 1 uM measured by DiscoverX kinome scan assay relative to control
T1 sequence (whole entry): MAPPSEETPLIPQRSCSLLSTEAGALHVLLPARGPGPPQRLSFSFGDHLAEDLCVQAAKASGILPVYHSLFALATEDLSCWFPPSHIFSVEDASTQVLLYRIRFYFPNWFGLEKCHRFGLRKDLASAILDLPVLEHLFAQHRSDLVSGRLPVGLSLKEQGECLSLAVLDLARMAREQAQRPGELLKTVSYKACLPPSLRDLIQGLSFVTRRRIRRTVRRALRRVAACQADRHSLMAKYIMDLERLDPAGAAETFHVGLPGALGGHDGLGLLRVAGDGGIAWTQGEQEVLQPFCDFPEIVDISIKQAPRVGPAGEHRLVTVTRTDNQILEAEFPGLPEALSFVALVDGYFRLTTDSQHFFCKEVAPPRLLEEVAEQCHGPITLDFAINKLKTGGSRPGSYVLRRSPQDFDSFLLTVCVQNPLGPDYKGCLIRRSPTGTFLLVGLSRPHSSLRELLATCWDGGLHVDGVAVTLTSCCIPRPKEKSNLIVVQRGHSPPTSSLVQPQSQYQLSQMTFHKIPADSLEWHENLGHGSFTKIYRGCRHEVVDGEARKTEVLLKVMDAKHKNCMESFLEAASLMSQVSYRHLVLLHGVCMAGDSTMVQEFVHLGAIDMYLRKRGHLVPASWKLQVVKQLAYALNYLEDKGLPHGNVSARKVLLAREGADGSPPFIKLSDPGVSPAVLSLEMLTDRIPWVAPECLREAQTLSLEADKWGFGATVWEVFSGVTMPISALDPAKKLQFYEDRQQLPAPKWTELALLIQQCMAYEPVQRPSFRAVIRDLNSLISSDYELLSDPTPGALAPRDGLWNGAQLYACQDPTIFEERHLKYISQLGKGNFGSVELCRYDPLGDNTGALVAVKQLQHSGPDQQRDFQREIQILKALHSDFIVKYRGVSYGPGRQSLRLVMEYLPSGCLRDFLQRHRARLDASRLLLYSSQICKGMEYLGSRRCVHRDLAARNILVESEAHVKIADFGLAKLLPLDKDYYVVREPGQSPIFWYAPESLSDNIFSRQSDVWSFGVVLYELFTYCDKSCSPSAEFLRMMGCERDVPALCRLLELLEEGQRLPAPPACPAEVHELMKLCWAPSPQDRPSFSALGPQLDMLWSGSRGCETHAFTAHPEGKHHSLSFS

Activity [4]: 0.55% | AUC(0-inf) [7]: 1470 ng·h/mL | half-life [10]: 35.4 min | IC50 (Raji): > 10 µM | AUC(0-inf) [11]: 718 ng·h/mL | Activity [14]: 0.05% | Activity [15]: 3.8%
SMILES: C=CC(=O)N1CC=C(c2c[nH]c3ncnc(-c4ccc(CNC(=O)c5ccccc5)c(F)c4)c23)CC1
IC50 [1]: > 10 µM | Activity [2]: Non-Toxic | Activity [3]: Non-Toxic | Activity [5]: Non-Toxic | Activity (TMD8 [6]): 31.4% | Activity [8]: Non-Toxic | Activity [9]: Non-Toxic | Activity [12]: Non-Toxic | Activity (TMD8 [13]): 8.7%
